Patent US8603986B2, “Compounds and methods for modulating cadherin-mediated processes” (McGill University, priority 2005, dated 2013)
Marks after values point to notes of the source that are not given here.

Legend:
[1] = tested on: SKOV3 human ovarian cancer cells; experiment: Disruption of SKOV3 cell adhesion in confluent cultures; format: cell-based; parameters: key to Peptide Disrupts Adhesion of SKOV3 cells: +: yes; −: no; details: for Peptide Disrupts Adhesion of SKOV3 cells: Table 8 summary
Procedure: SKOV3 human ovarian cancer cells (kind gift from Dr. Riaz Farookhi, McGill University, Montreal, Quebec) were cultured in MEM containing 1.25 μg/ml Fungizone, 100 U/ml penicillin 100 μg/ml streptomycin, 0.1 mM nonessential amino acids, 2 mM L-glutamine, 10 μg/ml ml gentamicin and 10% fetal bovine serum. All culture reagents were purchased from GIBCO (Burlington, ON). To obtain confluent cell cultures, 100,000 cells per well were plated onto a 4 well slide (NalgeNunc, Naperville, Ill.) and incubated for 24 h at 37° C., in a humidified atmosphere (5% CO2).
(§1) Depending on their solubility, peptides were dissolved directly in culture medium and added to confluent cell cultures at the indicated concentration, or they were dissolved in dimethylformamide (DMF) to obtain a 100× concentrated solution or in water to obtain a 10× concentrated solution. The peptide stock solutions were further diluted with culture medium to a final working concentration and added to confluent cell cultures. Culture medium containing 1% solvent was used as a control. At the end of the treatment, cells were either examined by phase contrast microscopy, or fixed with 4% paraformaldehyde in PBS and stained with hematoxylin prior to light microscopic examination.
Confluent cultures of SKOV3 cells were incubated in the presence of individual peptides.

[2] = tested on: MCF-7 human breast cancer cells; experiment: Disruption of MCF-7 cell adhesion; format: cell-based; parameters: key to Peptide Disrupts Adhesion of MCF-7 cells: +: yes; −: no; details: for Peptide Disrupts Adhesion of MCF-7 cells: Table 8 summary
Procedure: MCF-7 human breast cancer cells (kind gift from Dr. Riaz Farookhi, McGill University, Montreal, Quebec) were cultured in the same medium as SKOV3 but supplemented with 1 mM sodium pyruvate.
as §1

[3] = target: T1, N-cadherin/Fc chimeric protein (Homo sapiens, UniProt P19022); experiment: Table 8 summary: peptide binds to N-cad/Fc; format: binding; parameters: key: +: yes; −: no
T1 construct: extracellular domain of human N-cadherin (Asp160-Ala724); purchased R&D Systems, Minneapolis, Minn
T1 sequence (P19022 160-724): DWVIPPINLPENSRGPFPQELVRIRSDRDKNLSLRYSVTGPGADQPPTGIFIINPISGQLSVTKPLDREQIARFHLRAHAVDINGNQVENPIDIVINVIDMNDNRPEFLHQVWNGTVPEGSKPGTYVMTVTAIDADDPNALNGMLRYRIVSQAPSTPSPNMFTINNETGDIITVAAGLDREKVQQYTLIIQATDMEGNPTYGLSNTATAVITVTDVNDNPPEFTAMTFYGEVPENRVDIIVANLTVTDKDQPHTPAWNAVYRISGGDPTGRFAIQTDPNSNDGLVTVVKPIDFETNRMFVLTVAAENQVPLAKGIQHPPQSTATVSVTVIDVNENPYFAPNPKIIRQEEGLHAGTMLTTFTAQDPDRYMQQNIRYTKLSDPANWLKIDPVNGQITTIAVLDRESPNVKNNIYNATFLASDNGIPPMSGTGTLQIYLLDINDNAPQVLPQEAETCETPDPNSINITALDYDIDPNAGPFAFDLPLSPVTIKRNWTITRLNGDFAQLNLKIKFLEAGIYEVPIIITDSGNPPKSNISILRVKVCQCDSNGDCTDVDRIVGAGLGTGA

[4] = target: T2, E-cadherin/Fc chimeric protein (Homo sapiens, UniProt P12830); experiment: Table 8 summary: peptide binds to E-cad/Fc; format: binding; parameters: key: +: yes; −: no
T2 construct: extracellular domain of human E-cadherin (Asp155-Ile707); purchased R&D Systems, Minneapolis, Minn
T2 sequence (P12830 155-707): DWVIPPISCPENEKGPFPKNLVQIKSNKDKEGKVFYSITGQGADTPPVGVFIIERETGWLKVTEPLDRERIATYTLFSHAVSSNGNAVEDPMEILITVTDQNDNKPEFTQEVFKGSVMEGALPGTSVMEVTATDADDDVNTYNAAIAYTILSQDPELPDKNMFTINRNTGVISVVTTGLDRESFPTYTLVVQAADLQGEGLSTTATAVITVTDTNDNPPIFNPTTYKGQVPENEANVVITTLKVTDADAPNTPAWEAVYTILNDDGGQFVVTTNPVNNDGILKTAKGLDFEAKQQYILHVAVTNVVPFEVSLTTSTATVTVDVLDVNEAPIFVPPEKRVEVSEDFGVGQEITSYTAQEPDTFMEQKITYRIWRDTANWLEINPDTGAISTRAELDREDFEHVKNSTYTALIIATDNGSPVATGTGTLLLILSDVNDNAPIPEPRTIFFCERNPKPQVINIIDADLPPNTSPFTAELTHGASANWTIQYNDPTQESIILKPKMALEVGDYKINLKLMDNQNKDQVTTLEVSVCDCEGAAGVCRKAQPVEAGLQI

[5] = tested on: Human Umbilical Vein Endothelial Cells (HUVEC); experiment: Disruption of HUVEC adhesion; format: cell-based; parameters: key to Peptide Disrupts Adhesion of HUVEC: +: yes; −: no
Procedure: Human Umbilical Vein Endothelial Cells (HUVEC) and Human Dermal Microvascular Endothelial Cells (HMVEC-d) were purchased from Cambrex Bio Science Walkersville, Inc. Clonetics EGM-2 and EGM-2-MV Bulletkits (Cambrex Bio Science Walkersville, Inc) were used to culture HUVEC and HMVEC-d respectively. Cells (40,000 per well) were plated onto a 4 well slide (NalgeNunc, Naperville, Ill.) and incubated at 37° C., in a humidified atmosphere (5% CO2).
as §1

[6] = target: T1, N-cadherin/Fc chimeric protein; experiment: Cadherin/Fc binding assay: phage ELISA on N-cadherin/Fc; parameters: key to ELISA Phage Binding to N-Cadherin/Fc Chimeric Protein 1.2 mM calcium / ELISA Phage Binding to N-Cadherin/Fc Chimeric Protein 2 mM EDTA / ELISA Phage Binding to Cadherin/Fc Chimeric Proteins N−: +: Phage bound to the chimeric protein; −: No phage bound to the chimeric protein; details: Table 7, Ph.D.-12 clones selected on E-cadherin/Fc
Description: (§2) The peptide libraries, Ph.D.-C7C™ and Ph.D.-12™ (New England BioLabs) were used in this study. These libraries are composed of 2×10^9 randomized 7 amino acid sequences flanked by cysteine residues and linear 12 amino acid sequences, respectively. The amino acid sequences are incorporated into the minor coat protein, pIII, of M13 phage. The N-cadherin/Fc chimeric protein (R&D Systems, Minneapolis, Minn.) consists of the extracellular domain of human N-cadherin (Asp160-Ala724) and the Fc region of human IgG1. The E-cadherin/Fc chimeric protein (R&D Systems, Minneapolis, Minn.) consists of the extracellular domain of human E-cadherin (Asp155-Ile707) and the Fc region of human IgG1.
The binding of each clone to the cadherin/Fc chimeric proteins was confirmed by ELISA. Wells of ProBind microtiter plates (Falcon) were coated with either N-cadherin/Fc or E-cadherin/Fc chimeric protein (100 ng/well) or human IgG1 (which contains the Fc fragment) (100 ng/well). […] Non-coated wells were also used to exclude any phage that bound to the plastic surface. […] M13 phage without any insert were used to control the non-specific binding of the phage itself to the target. […] […] Horseradish peroxidase substrate, TMB (Sigma), was added to each well (100 μl/well and after color development the reaction was stopped by addition of 100 μl 0.5 M sulphuric acid to each well. The intensity of the color was measured at 450 nm.
(§3) The phage clones shown to bind to the N-cadherin/Fc chimeric protein by ELISA were also evaluated for their ability to bind to E-cadherin/Fc and VE-cadherin/Fc chimeric proteins. The phage clones shown to bind to the E-cadherin/Fc chimeric protein by ELISA were also evaluated for their ability to bind to N-cadherin/Fc and VE-cadherin/Fc chimeric proteins. The same ELISA protocol described in the previous section was used to perform this evaluation with the exception that the wells were coated with either 100 ng N-cadherin/Fc, E-cadherin/Fc or VE-cadherin/Fc chimeric protein (R&D Systems, Minneapolis, Minn.).

[7] = target: T2, E-cadherin/Fc chimeric protein; experiment: Cadherin/Fc binding assay: phage ELISA on E-cadherin/Fc; parameters: key: +: Phage bound to the chimeric protein; −: No phage bound to the chimeric protein; details: Table 7, Ph.D.-12 clones selected on E-cadherin/Fc
Description: as §2
(§4) The binding of each clone to the cadherin/Fc chimeric proteins was confirmed by ELISA. Wells of ProBind microtiter plates (Falcon) were coated with either N-cadherin/Fc or E-cadherin/Fc chimeric protein (100 ng/well) or human IgG1 (which contains the Fc fragment) (100 ng/well). After blocking the nonspecific sites with TBS containing 3% BSA and 1.2 mM CaCl2 for 1 h at 37° C., phage clones (10^9 pfu) diluted in TBST containing 3% BSA and 1.2 mM CaCl2 (100 μl/well). Non-coated wells were also used to exclude any phage that bound to the plastic surface. After 1 h incubation at room temperature, wells were washed 3 times with TBST containing 3% BSA and 1.2 mM CaCl2. M13 phage without any insert were used to control the non-specific binding of the phage itself to the target. Monoclonal anti-M13 antibody conjugated to horseradish peroxidase (Amersham Biosciences, Piscataway, N.J.) was diluted in TBST containing 3% BSA and 1.2 mM CaCl2 (1:2,000) and added to each well (100 μl/well). After 1 h incubation at room temperature, wells were washed three times with TBST containing 3% BSA and 1.2 mM CaCl2 and once with TBS containing 1.2 mM CaCl2. Horseradish peroxidase substrate, TMB (Sigma), was added to each well (100 μl/well and after color development the reaction was stopped by addition of 100 μl 0.5 M sulphuric acid to each well. The intensity of the color was measured at 450 nm.
as §3

[8] = target: T3, VE-cadherin/Fc chimeric protein (Homo sapiens, UniProt P33151); experiment: Cadherin specificity: phage ELISA on VE-cadherin/Fc; format: binding; parameters: key: +: Phage bound to the chimeric protein; −: No phage bound to the chimeric protein; details: Table 7, Ph.D.-12 clones selected on E-cadherin/Fc
T3 construct: purchased R&D Systems, Minneapolis, Minn
T3 sequence (P33151 with tags, fused parts or gaps limits assumed, species assumed): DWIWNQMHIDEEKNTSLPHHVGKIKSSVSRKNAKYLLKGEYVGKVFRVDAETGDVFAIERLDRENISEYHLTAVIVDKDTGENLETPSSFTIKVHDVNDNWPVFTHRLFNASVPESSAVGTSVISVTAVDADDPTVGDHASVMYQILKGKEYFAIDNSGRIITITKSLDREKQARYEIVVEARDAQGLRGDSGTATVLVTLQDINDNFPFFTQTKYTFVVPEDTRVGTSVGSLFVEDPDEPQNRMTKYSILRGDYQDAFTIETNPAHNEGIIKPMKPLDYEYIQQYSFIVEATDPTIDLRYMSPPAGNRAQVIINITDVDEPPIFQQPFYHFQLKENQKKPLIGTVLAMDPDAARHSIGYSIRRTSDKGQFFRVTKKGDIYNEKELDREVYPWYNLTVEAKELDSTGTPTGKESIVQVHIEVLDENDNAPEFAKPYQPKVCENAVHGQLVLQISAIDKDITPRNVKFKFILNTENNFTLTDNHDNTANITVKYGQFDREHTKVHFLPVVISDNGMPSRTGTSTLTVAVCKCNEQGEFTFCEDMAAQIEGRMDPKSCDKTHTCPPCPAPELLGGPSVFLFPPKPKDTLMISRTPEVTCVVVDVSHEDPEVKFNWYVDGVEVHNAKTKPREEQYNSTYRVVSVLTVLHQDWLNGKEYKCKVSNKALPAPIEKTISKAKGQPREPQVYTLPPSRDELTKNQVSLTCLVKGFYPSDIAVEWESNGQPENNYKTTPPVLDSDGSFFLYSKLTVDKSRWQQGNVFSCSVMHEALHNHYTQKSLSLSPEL
Procedure: as §4, §3

[9] = confluent cultures, concentration not given

Substance	Peptide Disrupts Adhesion of SKOV3 cells [1]	Peptide Disrupts Adhesion of MCF-7 cells [2]	Peptide Binds to N-cad/Fc [3]	Peptide Binds to E-cad/Fc [4]	also measured
H-EWMIHYDSALTS-NH2	+	+	+	+	effect on SKOV3 cell adhesion ([1]; 1 mg/ml): disrupted; effect on MCF-7 cell adhesion ([2]; 1 mg/ml): disrupted
H-WELRVSSP-NH2	+		+	−	effect on cell adhesion and cell morphology ([1]; 0.5 mg/ml, SKOV3 per b307 and Table 8): capable of disrupting cell adhesion and altering cell morphology
H-SWTLYTPSGQSK-(succinyl-PEG5000-OMe)—NH2 (H-SWTLYTPSGQSK-NH2; also: succinyl-PEG5000-OMe attached, site not given here)					activity on HUVEC adhesion ([5]; 4.7 mg/ml): strong activity; incubation time within which HUVEC adhesion was disrupted ([5]; 4.7 mg/ml): within one hour
H-HWYITTGPVREK-NH2			+	−	effect on HUVEC adhesion ([5]; 1 mg/ml medium, up to 1 h incubation): had no effect on HUVEC adhesion; Peptide Disrupts Adhesion of HUVEC ([5]; Table 8 summary): −
H-WYVCVGAH-NH2	+	−	+#	−##	effect on SKOV3 cell adhesion and morphology ([1]; 100 and 150 μg/ml (tested 50, 100 and 150 μg/ml medium), 24 h): capable of disrupting cell adhesion and altering cell morphology; culture time after which the effect on SKOV3 cell adhesion was evident ([1]; more pronounced after 24 h): 9 h; effect on MCF-7 cell adhesion ([2]; 100 μg/ml): did not affect MCF-7 cell adhesion
H-RYVCVGAH-NH2 [reference compound]	−				effect on SKOV3 cell adhesion [1, 9]: had no effect on cell adhesion
H-AELRVSSP-NH2 [reference compound]	−				effect on SKOV3 cell adhesion [1, 9]: had no biological activity
H-SWELYYPLRANL-NH2	+	+	+	+	effect on SKOV3 cell adhesion ([1]; 1 mg/ml): disrupted; effect on MCF-7 cell adhesion ([2]; 1 mg/ml): disrupted
QWQLHWPASKQA [Ec 12-11]					ELISA Phage Binding to Cadherin/Fc Chimeric Proteins N− [6]: +; ELISA Phage Binding to Cadherin/Fc Chimeric Proteins E− [7]: +; ELISA Phage Binding to Cadherin/Fc Chimeric Proteins VE− [8]: −
